# US3981999A, “Fish disease treatment” (Dainippon Pharmaceutical Co., Ltd., priority 1973, dated 1976)
# Like-named read-outs stand apart in the source and are kept apart here.
# Experiments:
# [1] = tested on: Aeromonas liquefacieus Y-62; experiment: Oral effect against Aeromonas infection in goldfish; format: in vivo
# Procedure: Goldfish each weighing about 6 - 7 g were given a fish food containing each of the test compounds. After 30 minutes, the fish were infected intramuscularly with Aeromonas liquefacieus Y-62 (about 10^7 germs/fish) under ether anesthesia. […] In the same manner, the control group was given the same fish food without the test compound.
# goldfish = experiment: Oral toxicity in goldfish; format: in vivo; conditions: 10% in diet (PA 800, AT-1493 955, AT-1557 935, AT-1475 923 mg/kg); for Mortality: 7 days; for Number of the survival after 1 day from administration / Number of the survival after 2 days from administration / Number of the survival after 3 days from administration / Number of the survival after 4 days from administration / Number of the survival after 5 days from administration / Number of the survival after 6 days from administration / Number of the survival after 7 days from administration: day 0: 5 fish
# Procedure: A diet containing 10% of each of the test compounds was given orally to groups each consisting of 5 goldfish each weighing 6 to 10 g, and observation was made for the following 7 days. The temperature of the water was maintained at 28°C.
# Chondrococcus sp K-2 = experiment: MIC by broth serial dilution; format: cell-based
# Procedure: (§1) The MIC (minimum inhibitory concentration) of a test compound was determined by the serial dilution method on various pathogenic microorganisms incubated under the following experimental conditions. The lowest concentration at which the visible growth of the organism was inhibited was considered as MIC. […]
# (§2) the broth-dilution method bouillon, pH 7.2, except for Vibrio (3% NaCl-bouillon, pH 7.2), Pasteurella (2% NaCl-Brain Heart Infusion, pH 7.3 and Chondrococcus (TY medium, pH 7.3) 1 drop of a bacterial suspension per test tube (100 - 1000 minimal growing units in the medium) 25°C, except for Pseud. anguilliseptica (20°C)
# (§3) 48 hours, except for Pseudo. anguilliseptica ([…])
# [2] = tested on: Pseudomonas anguilliseptica S-1; experiment: MIC by broth serial dilution; format: cell-based
# Procedure: as §1, §2, §3
# Chondrococcus sp K-1 = experiment: MIC by broth serial dilution; format: cell-based
# Procedure: as §1, §2, §3
# [3] = tested on: Pseudomonas anguilliseptica T-2; experiment: MIC by broth serial dilution; format: cell-based
# Procedure: as §1, §2, §3
# Vibrio anguillarum A-8 = experiment: MIC by broth serial dilution; format: cell-based
# Procedure: as §1, §2, §3
# [4] = tested on: Aeromonas salmonicida Hara-1; experiment: MIC by broth serial dilution; format: cell-based
# Procedure: as §1, §2, §3
# [5] = tested on: Aeromonas liquefaciens Y-62; experiment: MIC by broth serial dilution; format: cell-based; conditions: Aeromonas hydrophila
# Procedure: as §1, §2, §3
# [6] = tested on: Aeromonas salmonicida Hara-2; experiment: MIC by broth serial dilution; format: cell-based
# Procedure: as §1, §2, §3
# [7] = tested on: Aeromonas salmonicida Kusuda; experiment: MIC by broth serial dilution; format: cell-based
# Procedure: as §1, §2, §3
# [8] = tested on: Aeromonas salmonicida Kawazu; experiment: MIC by broth serial dilution; format: cell-based
# Procedure: as §1, §2, §3
# [9] = tested on: Pasteurella piscicida Al-3; experiment: MIC by broth serial dilution; format: cell-based; conditions: Photobacterium damselae
# Procedure: as §1, §2, §3
# Vibrio anguillarum K-3 = experiment: MIC by broth serial dilution; format: cell-based
# Procedure: as §1, §2, §3
# Vibrio anguillarum Km-30 = experiment: MIC by broth serial dilution; format: cell-based
# Procedure: as §1, §2, §3
# [10] = tested on: Pasteurella piscicida K-1; experiment: MIC by broth serial dilution; format: cell-based; conditions: Photobacterium damselae
# Procedure: as §1, §2, §3
# [11] = 0.1% in diet (PA 6.1, AT-1493 7.5, AT-1557 7.6, AT-1475 7.5 mg/kg), 5 days
# [12] = 0.1% in diet (PA 6.1, AT-1493 7.5, AT-1557 7.6, AT-1475 7.5 mg/kg), day 0: PA 10, others 5 fish
# [13] = 0.3% in diet, 22.3 mg/kg, day 0: 5 fish
# [14] = TY medium pH 7.3, 25°C, 48 hours, read-out: MIC
# [15] = S1, bouillon pH 7.2, 20°C, 7 hours, read-out: MIC
# [16] = T2, bouillon pH 7.2, 20°C, 7 hours, read-out: MIC
# [17] = A8, 3% NaCl-bouillon pH 7.2, 25°C, 48 hours, read-out: MIC
# [18] = HARA1, bouillon pH 7.2, 25°C, 48 hours, read-out: MIC
# [19] = Y62, bouillon pH 7.2, 25°C, 48 hours, read-out: MIC
# [20] = HARA2, bouillon pH 7.2, 25°C, 48 hours, read-out: MIC
# [21] = bouillon pH 7.2, 25°C, 48 hours, read-out: MIC
# [22] = AL3, 2% NaCl-Brain Heart Infusion pH 7.3, 25°C, 48 hours, read-out: MIC
# [23] = K3, 3% NaCl-bouillon pH 7.2, 25°C, 48 hours, read-out: MIC
# [24] = KM30, 3% NaCl-bouillon pH 7.2, 25°C, 48 hours, read-out: MIC
# [25] = K1, 2% NaCl-Brain Heart Infusion pH 7.3, 25°C, 48 hours, read-out: MIC
# [26] = 0.03% in diet (PA 2.5, AT-1493 2.5, AT-1557 2.2 mg/kg), 5 days
# [27] = 0.03% in diet (PA 2.5, AT-1493 2.5, AT-1557 2.2 mg/kg), day 0: PA 10, others 5 fish
# [28] = 1% in diet, 80.4 mg/kg, day 0: 5 fish
# [29] = 3% in diet, 253.1 mg/kg, day 0: 5 fish
structure (smiles),measurement,setting,value
"C=Cn1cc(C(=O)O)c(=O)c2ccc(N3CCNCC3)nc21 [AT-1475, 1,4-Dihydro-7-(1-piperazinyl)-4-oxo-1-vinyl-1,8-naphthyridine-3-carboxylicacid]",Percent survival,[1]; [11],60%
same,Number of surviving fish after 1 day,[1]; [12],5
same,Number of surviving fish after 2 days,[1]; [12],4
same,Number of surviving fish after 3 days,[1]; [12],4
same,Number of surviving fish after 4 days,[1]; [12],3
same,Number of surviving fish after 5 days,[1]; [12],3
same,Percent survival,"[1]; 0.3% in diet, 22.3 mg/kg, 5 days",100%
same,Number of surviving fish after 1 day,[1]; [13],5
same,Number of surviving fish after 2 days,[1]; [13],5
same,Number of surviving fish after 3 days,[1]; [13],5
same,Number of surviving fish after 4 days,[1]; [13],5
same,Number of surviving fish after 5 days,[1]; [13],5
same,Mortality,goldfish,0%
same,Number of the survival after 1 day from administration,goldfish,5
same,Number of the survival after 2 days from administration,goldfish,5
same,Number of the survival after 3 days from administration,goldfish,5
same,Number of the survival after 4 days from administration,goldfish,5
same,Number of the survival after 5 days from administration,goldfish,5
same,Number of the survival after 6 days from administration,goldfish,5
same,Number of the survival after 7 days from administration,goldfish,5
same,MIC,Chondrococcus sp K-2; [14],1 µg/mL
same,MIC,[2]; [15],0.1 µg/mL
same,MIC,Chondrococcus sp K-1; [14],1 µg/mL
same,MIC,[3]; [16],0.1 µg/mL
same,MIC,Vibrio anguillarum A-8; [17],10 µg/mL
same,MIC,[4]; [18],0.3 µg/mL
same,MIC,[5]; [19],0.3 µg/mL
same,MIC,[6]; [20],1 µg/mL
same,MIC,[7]; [21],0.3 µg/mL
same,MIC,[8]; [21],0.3 µg/mL
same,MIC,[9]; [22],1 µg/mL
same,MIC,Vibrio anguillarum K-3; [23],3 µg/mL
same,MIC,Vibrio anguillarum Km-30; [24],10 µg/mL
same,MIC,[10]; [25],1 µg/mL
"C=Cn1cc(C(=O)O)c(=O)c2ccc(N3CCN(C)CC3)cc21 [AT-1493, 1,4-Dihydro-7-(4-methyl-1-piperazinyl)-4-oxo-1-vinylquinoline-3-carboxylicacid]",Percent survival,[1]; [26],100%
same,Number of surviving fish after 1 day,[1]; [27],5
same,Number of surviving fish after 2 days,[1]; [27],5
same,Number of surviving fish after 3 days,[1]; [27],5
same,Number of surviving fish after 4 days,[1]; [27],5
same,Number of surviving fish after 5 days,[1]; [27],5
same,Percent survival,[1]; [11],100%
same,Number of surviving fish after 1 day,[1]; [12],5
same,Number of surviving fish after 2 days,[1]; [12],5
same,Number of surviving fish after 3 days,[1]; [12],5
same,Number of surviving fish after 4 days,[1]; [12],5
same,Number of surviving fish after 5 days,[1]; [12],5
same,Mortality,goldfish,0%
same,Number of the survival after 1 day from administration,goldfish,5
same,Number of the survival after 2 days from administration,goldfish,5
same,Number of the survival after 3 days from administration,goldfish,5
same,Number of the survival after 4 days from administration,goldfish,5
same,Number of the survival after 5 days from administration,goldfish,5
same,Number of the survival after 6 days from administration,goldfish,5
same,Number of the survival after 7 days from administration,goldfish,5
same,MIC,Chondrococcus sp K-2; [14],3 µg/mL
same,MIC,[2]; [15],0.1 µg/mL
same,MIC,Chondrococcus sp K-1; [14],3 µg/mL
same,MIC,[3]; [16],0.1 µg/mL
same,MIC,Vibrio anguillarum A-8; [17],3 µg/mL
same,MIC,[4]; [18],0.1 µg/mL
same,MIC,[5]; [19],0.1 µg/mL
same,MIC,[6]; [20],0.1 µg/mL
same,MIC,[7]; [21],0.1 µg/mL
same,MIC,[8]; [21],0.1 µg/mL
same,MIC,[9]; [22],1 µg/mL
same,MIC,Vibrio anguillarum K-3; [23],3 µg/mL
same,MIC,Vibrio anguillarum Km-30; [24],3 µg/mL
same,MIC,[10]; [25],0.3 µg/mL
"C=Cn1cc(C(=O)O)c(=O)c2ccc(N3CCN(CC)CC3)cc21 [AT-1557, 1,4-Dihydro-7-(4-ethyl-1-piperazinyl)-4-oxo-1-vinylquinoline-3-carboxylic acid]",Percent survival,[1]; [26],80%
same,Number of surviving fish after 1 day,[1]; [27],5
same,Number of surviving fish after 2 days,[1]; [27],4
same,Number of surviving fish after 3 days,[1]; [27],4
same,Number of surviving fish after 4 days,[1]; [27],4
same,Number of surviving fish after 5 days,[1]; [27],4
same,Percent survival,[1]; [11],100%
same,Number of surviving fish after 1 day,[1]; [12],5
same,Number of surviving fish after 2 days,[1]; [12],5
same,Number of surviving fish after 3 days,[1]; [12],5
same,Number of surviving fish after 4 days,[1]; [12],5
same,Number of surviving fish after 5 days,[1]; [12],5
same,Mortality,goldfish,0%
same,Number of the survival after 1 day from administration,goldfish,5
same,Number of the survival after 2 days from administration,goldfish,5
same,Number of the survival after 3 days from administration,goldfish,5
same,Number of the survival after 4 days from administration,goldfish,5
same,Number of the survival after 5 days from administration,goldfish,5
same,Number of the survival after 6 days from administration,goldfish,5
same,Number of the survival after 7 days from administration,goldfish,5
same,MIC,Chondrococcus sp K-2; [14],1 µg/mL
same,MIC,[2]; [15],0.1 µg/mL
same,MIC,Chondrococcus sp K-1; [14],1 µg/mL
same,MIC,[3]; [16],0.1 µg/mL
same,MIC,Vibrio anguillarum A-8; [17],3 µg/mL
same,MIC,[4]; [18],0.3 µg/mL
same,MIC,[5]; [19],0.3 µg/mL
same,MIC,[6]; [20],0.3 µg/mL
same,MIC,[7]; [21],0.3 µg/mL
same,MIC,[8]; [21],0.1 µg/mL
same,MIC,[9]; [22],1 µg/mL
same,MIC,Vibrio anguillarum K-3; [23],10 µg/mL
same,MIC,Vibrio anguillarum Km-30; [24],10 µg/mL
same,MIC,[10]; [25],1 µg/mL
"CN(C)C1C(=O)C(C(N)=O)=C(O)C2(O)C(=O)C3=C(O)c4c(O)cccc4C(C)(O)C3CC12 (centres unmarked) [Tetracycline, tetracycline, reference compound]",Percent survival,"[1]; 1% in diet, 80.4 mg/kg",0%
same,Number of surviving fish after 1 day,[1]; [28],3
same,Number of surviving fish after 2 days,[1]; [28],0
same,Number of surviving fish after 3 days,[1]; [28],0
same,Percent survival,"[1]; 3% in diet, 253.1 mg/kg",0%
same,Number of surviving fish after 1 day,[1]; [29],5
same,Number of surviving fish after 2 days,[1]; [29],1
same,Number of surviving fish after 3 days,[1]; [29],0
same,Percent survival,[1]; diet concentration of as high as more than 0.1% as well as as low as 0.1%,zero
same,MIC,"Chondrococcus sp K-2; 48 h, pH 7.3",1 µg/mL
same,MIC,"[2]; S1, 7 h, pH 7.2",0.3 µg/mL
same,MIC,"Chondrococcus sp K-1; 48 h, pH 7.3",1 µg/mL
same,MIC,"[3]; T2, 7 h, pH 7.2",0.3 µg/mL
same,MIC,"Vibrio anguillarum A-8; A8, 48 h, pH 7.2",1 µg/mL
same,MIC,"[4]; HARA1, 48 h, pH 7.2",0.3 µg/mL
same,MIC,"[5]; Y62, 48 h, pH 7.2",1 µg/mL
same,MIC,"[6]; HARA2, 48 h, pH 7.2",0.1 µg/mL
same,MIC,"[7]; 48 h, pH 7.2",0.3 µg/mL
same,MIC,"[8]; 48 h, pH 7.2",1 µg/mL
same,MIC,"[9]; AL3, 48 h, pH 7.3",0.3 µg/mL
same,MIC,"Vibrio anguillarum K-3; K3, 48 h, pH 7.2",1 µg/mL
same,MIC,"Vibrio anguillarum Km-30; KM30, 48 h, pH 7.2",0.3 µg/mL
same,MIC,"[10]; K1, 48 h, pH 7.3",0.3 µg/mL
